In ChEMBL document CHEMBL4138088, “Novel 1-(7-ethoxy-1-benzofuran-2-yl) substituted chalcone derivatives: Synthesis, characterization and anticancer activity” (Eur J Med Chem, 2017):
pIC50: −log10 of the molar value. Calls of active or inactive are those of the source. No cut-off for these calls is given here.

Tests used:
Format in all cases: functional, cell-based
MCF7 [1] = experiment: Growth inhibition of human MCF7 cells at 20 uM after 72 hrs by ATP bioluminescence assay
MCF7 [2] = experiment: Growth inhibition of human MCF7 cells at 20 uM after 72 hrs by SRB assay
HCT-116 [3] = experiment: Antiproliferative activity against human HCT116 cells after 24 hrs by MTT assay; conditions: HCT-116, 24 h
HCT-116 [4] = experiment: Antiproliferative activity against human HCT116 cells after 12 hrs by MTT assay; conditions: HCT-116, 12 h
HCT-116 [5] = experiment: Antiproliferative activity against human HCT116 cells after 6 hrs by MTT assay; conditions: HCT-116, 6 h
HCT-116 [6] = experiment: Antiproliferative activity against human HCT116 cells after 48 hrs by MTT assay; conditions: HCT-116, 48 h

pIC50 (HCT-116 [3])	pIC50 (HCT-116 [4])	pIC50 (HCT-116 [5])	pIC50 (HCT-116 [6])	Compound	growth inhibition (GI) (MCF7 [1])	growth inhibition (GI) (MCF7 [2])
				CCOc1cccc2cc(C(=O)/C=C/c3cccs3)oc12	Active	Active
				CCOc1cccc2cc(C(=O)/C=C/c3ccc(OC)cc3)oc12	Active	Active
				CCOc1cccc2cc(C(=O)/C=C/c3ccc[nH]3)oc12	Active	Active
4.59	3.85	3.22	4.80	COc1cc(/C=C/C(=O)c2cccc(-n3c(C)nc4ccccc4c3=O)c2)ccc1O		
